Measurements reported in the SangsterLogP compilation.

assay: method code SF-AS, from PMID: 7312925

Row | logP | SMILES
1 | -0.21 | Cc1cc(=O)c2nncn2[nH]1
2 | -1.22 | Cc1cc(OCC(=O)O)c(Cl)nn1
3 | -0.85 | Cc1cc(O)c(N)nn1
4 | 0.61 | Cc1cc(C)c(NN(C=O)Cc2ccccc2)nn1
5 | 0.02 | CCOc1cc(=O)c2nncn2[nH]1
6 | 0.13 | Cc1cc(S)c(N)nn1
7 | -0.89 | CC(=O)Nc1nnc(C)cc1O

More lines, now with the values behind:

Row | SMILES | logP
8 | Cc1cc(O)c(N2CCOCC2)nn1 | -0.06
9 | Cc1cc(O)c(N(C)C)nn1 | 0.24
10 | Cc1[nH]n2cnnc2c(=O)c1N=O | -1.1
11 | Cc1[nH]n2cnnc2c(=O)c1Br | -0.68
12 | Cc1[nH]n2cnnc2c(=O)c1N | -0.52
13 | Cc1cc(O)c(Cl)nn1 | -0.82
14 | Cc1cc(C)c(N)nn1 | -0.32
15 | Cc1cc(O)c(O)nn1 | -0.3
16 | Cc1cc(C)c(N/N=C\c2ccccc2)nn1 | 0.93
